Data: patent publication US10889847B2, “Kit and discs for use in disc diffusion antibiotic sensitivity testing” (YISSUM RESEARCH DEVELOPMENT COMPANY OF THE HEBREW …, priority 2015, dated 2021)

Experiments:
[1] = system: E. coli clinical strain W574; assay: Tolerance Diffusion test (TDtest), strain W574; format: cell-based; details: ertapenem disk (0.25 microgram), glucose disk in step II
Description: (§1) 2 Disc Test (TDtest) Procedure
(§2) The TDtest consists of two steps:
(§3) Step I—Incubation with Antibiotics:
(§4) Circa 10^7 bacteria at stationary phase (100 microliter) were plated on LBL nutrient agar plate. An antibiotic disc was placed on the agar. The plate with the antibiotic disc was incubated for at least 4 hours and up to 30 hours, preferably about 18 hours at 37° C.
(§5) The amount of antibiotics in each disk was adjusted to reach a concentration below the MIC in the inhibition zone after an overnight incubation at 37° C. Many commercial disks contain antibiotics in amounts that are too high for the concentration to fall below the MIC after this time. When this was the case, custom disks were prepared as specified herein below.
(§6) Step II—Incubation with Nutrient:
(§7) This step was carried out in one of the following protocols:
(§8) a. The antibiotic disk was replaced with a nutrient (i.e. 2 mg glucose) disk at the end of the antibiotic incubation time. The plate was incubated again for an additional overnight (at least 5 hours and up to 24 hours, preferably about 18 hours) at 37° C.
(§9) b. Nutrient solution (i.e., 2 mg glucose, or 5 microliter of 40% glucose solution) was added directly on the antibiotic disk, instead of replacing it.
(§10) c. Two phases disk was prepared, by impregnating 6 mg glucose on the upper side of the disk.
(§11) After the completion of the above steps, the growth of the bacteria was visually inspected.

[2] = system: E. coli clinical strain U453; assay: Tolerance Diffusion test (TDtest), strain U453; format: cell-based; details: ertapenem disk (0.25 microgram), glucose disk in step II
Description: as §1, §2, §3, §4, §5, §6, §7, §8, §9, §10, §11

[3] = system: E. coli strain U453; assay: MIC, strain U453; format: cell-based; details: Escherichia coli
[4] = system: E. coli strain W574; assay: MIC, strain W574; format: cell-based; details: Escherichia coli
[5] = system: E. coli strains W574 and U453; assay: Survival fraction in liquid culture, W574 versus U453; format: cell-based; details: ertapenem 10 microgram/ml
Description: (§12) Overnight bacterial cultures were diluted 1:100 in fresh medium containing antibiotic and incubated at 37° C. for designated time. Bacterial survival was determined by the most probable number-counting method (MPN), as described in Hurley, M. A. & Roscoe, M. E. Automated Statistical-Analysis of Microbial Enumeration by Dilution Series. J Appl. Bacteriol. 55:159-164 (1983).

[6] = at 12 hours after 1 gram dosing; cited from earlier work
[7] = system: E. cloacae clinical strain B340; assay: Tolerance Diffusion test (TDtest), strain B340; format: cell-based; details: ampicillin disk replaced with glucose disk after 18 hours, read at 36 hours
Description: as §1, §2, §3, §4, §5, §6, §7, §8, §9, §10
After the completion of the above steps, the growth of the bacteria was visually inspected. […]

[8] = system: E. coli tolerant strain tbl3a; assay: Tolerance Diffusion test (TDtest), strain tbl3a; format: cell-based
Description: as §1, §2, §3, §4, §5, §6, §7, §8
b. […]
Tolerant bacteria are identified by the use of two different TDtest methods, the two-disks TDtest and the single disk TDtest. […] The growth of the bacterium was monitored at several time points (0, 8, 17, 30 and 36 hours from the beginning of the test).

[9] = system: tbl5a; assay: Tolerance Diffusion test (TDtest), strain tbl5a, three growth media; format: cell-based, E. coli; details: after second step, LB agar, Mueller-Hinton agar, Mueller-Hinton+5% Blood agar
Description: FIG. 13A-13C show TDtest performed on three different growth media. The results are shown after the second step of TDtest examining the effect of ampicillin on tbl5a.
FIG. 13A is a LB agar plate.
FIG. 13B is a Mueller-Hinton agar plate.
FIG. 13C is a Mueller-Hinton+5% Blood agar plate.
as §1, §2, §3, §4, §5, §6, §7, §8
b. […]

[10] = system: tbl3a; assay: Time-kill experiment in liquid culture, tbl3a; format: cell-based, E. coli; details: for fraction of survivals: antibiotic 100 microgram/ml, after 2.6 hours
Description: as §12
These findings were verified by measuring the survival of tbl3a in liquid culture after exposure to the two antibiotics. An overnight culture was diluted and exposed either to ampicillin (100 microgram/ml) or kanamycin (100 microgram/ml). […] The large fraction of survivals in Ampicillin (12% after 2.6 hours) was predicted by the late colonies appearance, and is absent in Kanamycin (1.4E-8% after 2.6 hours).

[11] = system: many species; details: in many species; cited from earlier work

Structure (SMILES) | tolerance level by TDtest (colonies inside the inhibition zone after step II) [1] | tolerance level by TDtest (colonies inside the inhibition zone after step II) [2] | MIC [3] [µg/mL] | MIC [4] [µg/mL] | fraction of survival of a liquid culture, W574 versus U453 [5] | mean serum concentration [6] [microgram/ml] | tolerance by TDtest (colonies in inhibition zone) [7] | bacterial colonies in TDtest plate ([8]; after 36 hours, two-disks TDtest (glucose disk after 18 hours) or single disk TDtest) | tolerance by TDtest ([8]; ampicillin 10 microgram or kanamycin 15 microgram disk) | tolerance level by TDtest [9] | survival fraction under ampicillin relative to kanamycin ([10]; 100 microgram/ml each) | fraction of survivals [10] [%] | MIC [11]
C[C@@H](O)[C@H]1C(=O)N2C(C(=O)O)=C(S[C@@H]3CN[C@H](C(=O)Nc4cccc(C(=O)O)c4)C3)[C@H](C)[C@H]12 [ertapenem] | high tolerance | low tolerance | < 0.05 | < 0.05 | higher tolerance | ~10 | – | – | – | – | – | – | –
CC1(C)S[C@@H]2[C@H](NC(=O)[C@H](N)c3ccccc3)C(=O)N2[C@H]1C(=O)O [ampicillin] | – | – | – | – | – | – | tolerant | bacterial colonies are well seen | very tolerant | medium tolerance (“medium tolerance” is 10 to a few hundred colonies in the inhibition zone) | three orders of magnitude lower | 12 | around 4 microgram/ml
NC[C@H]1O[C@H](O[C@H]2[C@H](O)[C@@H](O[C@H]3O[C@H](CO)[C@@H](O)[C@H](N)[C@H]3O)[C@H](N)C[C@@H]2N)[C@H](O)[C@@H](O)[C@@H]1O [kanamycin] | – | – | – | – | – | – | – | – | – | – | – | 1.4E-8 | –
